Experimental data as given in article PMC2783590 (Nature chemical biology, 2009).

Legend:
[1] = system: myr-HA-asAkt1-KD or myr-HA-asAkt2-KD (Thr308, Ser473) phosphorylation; assay: HEK293 cells expressing kinase dead; format: cell-based, Human; settings: 30 min, 2.5 µM PrINZ or 10 µM 3-IB-PP1
[2] = system: HA-asAkt1 (Thr308, Ser473) phosphorylation; assay: HEK293 cells transfected with HA-asAkt1, immunoblotting; format: cell-based, Human; settings: 30 min, serially diluted inhibitor
[3] = system: Akt (Thr308, Ser473) and GSK3β (Ser9) phosphorylation; format: cell-based, Human; settings: serum-starved HEK293, 20 min drug then 50 ng/ml IGF-1 10 min
[4] = system: GSK3β (Ser9) phosphorylation; assay: HEK293 cells transfected with myr-HA-asAkt1, immunoblotting; format: cell-based, Human; settings: myr-HA-asAkt1, 30 min, various concentrations
[5] = system: 3T3-Akt1 tumor; settings: 3T3-Akt1 xenograft; cited from earlier work
[6] = system: MiaPaCa-2 tumor; settings: MiaPaCa-2 xenograft; cited from earlier work
[7] = system: Akt membrane localization; assay: Immunofluorescence of Akt in untransfected HEK293 cells; format: cell-based, Human
[8] = system: PC-3 tumor; settings: PC-3 xenograft; cited from earlier work
[9] = system: HA-asAkt1/2/3 (Thr308, Ser473) phosphorylation; format: cell-based, Human; settings: then 2.5 µM PrINZ 30 min; for hyperphosphorylation induced by PrINZ (Thr308 and Ser473): pre-treatment 10 min; for PrINZ induced Thr308 phosphorylation / PrINZ induced hyperphosphorylation at Ser473: pre-treatment 10 min (10 µM BX-795, 2.5 µM PP242)
[10] = system: 220 purified kinases; assay: SelectScreen profiling, whole panel; format: biochemical; settings: 1 µM
[11] = system: Akt (Thr308) and rpS6 (Ser240/244) phosphorylation in L6 cells; assay: Insulin stimulated L6 cells, immunoblotting; format: cell-based; settings: serum-starved, 20 min drug then 100 nM insulin 10 min
[12] = system: Akt; settings: cited from earlier work
[13] = system: myr-HA-asAkt1 (Thr308, Ser473) phosphorylation; format: cell-based, Human; settings: 2.5 µM PIK90 10 min, then 2.5 µM PrINZ 30 min
[14] = target: myr-HA-asAkt3 (Homo sapiens, UniProt Q9Y243, M225G); assay: In vitro IP kinase assay for Akt variants; format: biochemical; settings: myr-HA-asAkt3 expressed in HEK293T cells, immunoprecipitated; 50 µM ATP
[15] = target: myr-HA-wtAkt2 (Homo sapiens, UniProt P31751); assay: In vitro IP kinase assay for Akt variants; format: biochemical; settings: myr-HA-wtAkt2 expressed in HEK293T cells, immunoprecipitated; 50 µM ATP
[16] = target: myr-HA-asAkt1 (Homo sapiens, UniProt P31749, M227G); assay: In vitro IP kinase assay for Akt variants; format: biochemical; settings: myr-HA-asAkt1 expressed in HEK293T cells, immunoprecipitated; 50 µM ATP
[17] = system: HA-asAkt1 and flag-wtAkt1 (Thr308, Ser473) phosphorylation; format: cell-based, Human; settings: 30 min, various concentrations
[18] = target: myr-HA-wtAkt3 (Homo sapiens, UniProt Q9Y243); assay: In vitro IP kinase assay for Akt variants; format: biochemical; settings: myr-HA-wtAkt3 expressed in HEK293T cells, immunoprecipitated; 50 µM ATP
[19] = target: myr-HA-wtAkt1 (Homo sapiens, UniProt P31749); assay: In vitro IP kinase assay for Akt variants; format: biochemical; settings: myr-HA-wtAkt1 expressed in HEK293T cells, immunoprecipitated; 50 µM ATP
[20] = target: myr-HA-asAkt2 (Homo sapiens, UniProt P31751, M229G); assay: In vitro IP kinase assay for Akt variants; format: biochemical; settings: myr-HA-asAkt2 expressed in HEK293T cells, immunoprecipitated; 50 µM ATP
Sequence of myr-HA-asAkt2 (P31751 whole entry M229G): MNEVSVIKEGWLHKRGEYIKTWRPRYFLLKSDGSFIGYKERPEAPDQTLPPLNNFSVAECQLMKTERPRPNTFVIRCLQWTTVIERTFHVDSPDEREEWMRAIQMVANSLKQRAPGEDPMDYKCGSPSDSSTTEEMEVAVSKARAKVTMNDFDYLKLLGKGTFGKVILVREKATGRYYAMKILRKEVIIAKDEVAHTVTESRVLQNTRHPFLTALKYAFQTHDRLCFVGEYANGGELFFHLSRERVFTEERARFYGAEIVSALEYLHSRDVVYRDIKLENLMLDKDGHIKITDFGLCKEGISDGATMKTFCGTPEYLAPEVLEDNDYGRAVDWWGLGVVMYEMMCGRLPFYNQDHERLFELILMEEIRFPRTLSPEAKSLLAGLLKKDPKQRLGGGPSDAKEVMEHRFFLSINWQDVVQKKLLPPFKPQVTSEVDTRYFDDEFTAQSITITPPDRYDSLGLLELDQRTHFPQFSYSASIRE

Sequence of myr-HA-asAkt3 (Q9Y243 whole entry M225G): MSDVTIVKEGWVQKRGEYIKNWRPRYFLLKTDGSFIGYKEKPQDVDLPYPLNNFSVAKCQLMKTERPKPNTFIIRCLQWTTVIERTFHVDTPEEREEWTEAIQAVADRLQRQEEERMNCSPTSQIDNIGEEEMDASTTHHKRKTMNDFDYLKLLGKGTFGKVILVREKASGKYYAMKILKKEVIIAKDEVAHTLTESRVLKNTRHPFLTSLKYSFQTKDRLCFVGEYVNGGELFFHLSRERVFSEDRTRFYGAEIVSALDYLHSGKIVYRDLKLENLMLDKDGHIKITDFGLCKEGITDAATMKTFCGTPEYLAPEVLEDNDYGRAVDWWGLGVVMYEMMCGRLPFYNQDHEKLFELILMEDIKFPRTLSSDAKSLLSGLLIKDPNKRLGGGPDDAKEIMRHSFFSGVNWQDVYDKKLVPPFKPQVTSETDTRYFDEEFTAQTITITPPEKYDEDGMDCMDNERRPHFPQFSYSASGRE
Sequence of myr-HA-asAkt1 (P31749 whole entry M227G): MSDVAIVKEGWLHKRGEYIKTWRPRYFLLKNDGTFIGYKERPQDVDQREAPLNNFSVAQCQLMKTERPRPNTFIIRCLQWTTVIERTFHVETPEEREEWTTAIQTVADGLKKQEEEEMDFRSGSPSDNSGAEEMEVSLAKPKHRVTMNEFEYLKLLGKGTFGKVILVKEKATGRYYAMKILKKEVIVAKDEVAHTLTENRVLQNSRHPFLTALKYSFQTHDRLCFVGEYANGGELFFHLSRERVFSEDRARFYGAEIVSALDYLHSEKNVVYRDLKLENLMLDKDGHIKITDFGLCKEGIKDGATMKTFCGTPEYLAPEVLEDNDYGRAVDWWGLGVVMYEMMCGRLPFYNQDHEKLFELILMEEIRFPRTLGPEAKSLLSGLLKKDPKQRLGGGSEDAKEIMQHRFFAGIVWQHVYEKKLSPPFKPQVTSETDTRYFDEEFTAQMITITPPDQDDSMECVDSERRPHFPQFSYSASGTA
Sequence of myr-HA-wtAkt2 (P31751 whole entry): as the sequence (P31751 whole entry M229G) above, with G229M counted along it
Sequence of myr-HA-wtAkt1 (P31749 whole entry): as the sequence (P31749 whole entry M227G) above, with G227M counted along it
Sequence of myr-HA-wtAkt3 (Q9Y243 whole entry): as the sequence (Q9Y243 whole entry M225G) above, with G225M counted along it

CC(C)(C)n1nc(Cc2cccc(I)c2)c2c(N)ncnc21 [3-IB-PP1]
hyperphosphorylation on Thr308 and Ser473 of kinase dead mutants [1]: induced striking hyperphosphorylation
HA-asAkt1 hyperphosphorylation [2]: induced
Akt phosphorylation at Thr308 and Ser473 [3]: unperturbed
phosphorylation on GSK3β at Ser9 [3]: unperturbed
phosphorylation level of Ser9 on GSK3β [4]: decreased

Cc1n[nH]c2ccc(-c3cncc(OC[C@@H](N)Cc4c[nH]c5ccccc45)c3)cc12 [A-443654]
tumor growth [5]: inhibit the growth
tumor growth [6]: inhibit the growth
location of Akt ([7]; 2.5 µM, 15 min, no growth factor stimulation): translocation of Akt to the plasma membrane
Akt phosphorylation at Thr308 and Ser473 [3]: induced
phosphorylation on GSK3β at Ser9 [3]: potently inhibited
tumor growth [8]: inhibit the growth

O=c1[nH]c2ccccc2n1C1CCN(Cc2ccc(-c3nc4cc5nc[nH]c5cc4nc3-c3ccccc3)cc2)CC1 [Akti-1,2]
hyperphosphorylation induced by PrINZ (Thr308 and Ser473) [9]: dose-dependent inhibition

O=C(NCCCNc1nc(Nc2cccc(NC(=O)N3CCCC3)c2)ncc1I)c1cccs1 [BX-795]
selectivity in panel of 220 kinases [10]: selective for only PDK1 within the PI3K-mTORC1 pathway
PrINZ induced Thr308 phosphorylation [9]: significant decrease
PrINZ induced hyperphosphorylation at Ser473 [9]: reduced

COc1ccccc1N1CCN(c2ncnc3[nH]nc(Br)c23)CC1 [DG2]
Akt phosphorylation at Thr308 and Ser473 [11]: does not induce

CCn1c(-c2nonc2N)nc2c(C#CC(C)(C)O)ncc(OC[C@H]3CCCNC3)c21 [GSK690693, 4-(2-(4-amino-1,2,5-oxadiazol-3-yl)-1-ethyl-7-{[(3S)-3-piperidinylmethyl]oxy}-1H-imidazo[4,5-c]pyridin-4-yl)-2-methyl-3-butyn-2-ol]
Akt hyperphosphorylation [12]: induces Akt hyperphosphorylation

COc1ccc2c(c1OC)N=C(NC(=O)c1cccnc1)N1CCN=C21 [PIK90]
A-443654 induced translocation and Thr308 phosphorylation of Akt ([7]; 2.5 µM PIK90 10 min before 2.5 µM A-443654 15 min): inhibited
hyperphosphorylation induced by PrINZ (Thr308 and Ser473) [9]: significantly attenuated
hyperphosphorylation on myr-HA-asAkt1 [13]: not inhibited

CC(C)n1nc(-c2cc3cc(O)ccc3[nH]2)c2c(N)ncnc21 [PP242]
PrINZ induced Thr308 phosphorylation [9]: unaffected
PrINZ induced hyperphosphorylation at Ser473 [9]: completely inhibited

CCCc1cc(-c2cncc(OC[C@@H](N)Cc3c[nH]c4ccccc34)c2)cc2c(C)n[nH]c12 [PrINZ]
hyperphosphorylation on Thr308 and Ser473 of kinase dead mutants [1]: induced striking hyperphosphorylation
IC50 (nM) asAkt3 [14]: low nanomolar range
HA-asAkt1 hyperphosphorylation [2]: induced
IC50 (nM) wtAkt2 [15]: did not inhibit
IC50 (nM) asAkt1 [16]: low nanomolar range
Thr308 and Ser473 phosphorylation after immunoprecipitation [17]: induced only on HA-asAkt1
Akt phosphorylation at Thr308 and Ser473 [3]: unperturbed
phosphorylation on GSK3β at Ser9 [3]: unperturbed
phosphorylation level of Ser9 on GSK3β [4]: decreased
IC50 (nM) wtAkt3 [18]: did not inhibit
IC50 (nM) wtAkt1 [19]: did not inhibit
IC50 (nM) asAkt2 [20]: low nanomolar range
